Assay results reported in ChEMBL document CHEMBL5620374, “Synthesis and bioevaluation of novel stilbene-based derivatives as tubulin/HDAC dual-target inhibitors with potent antitumor activities in vitro and in vivo” (Eur J Med Chem, 2023).
The source made the active and inactive calls. The calls are words filed in the database; no cut-off is given here.

Key:
K562 [1] = assay: Induction of apoptosis in human K562 cells assessed as decrease in Bcl-2 level incubated for 24 hrs by Western blot analysis; type: functional, cell-based; conditions: dose 2-8 nM
K562 [2] = assay: Induction of cell cycle arrest at G1 phase in human K562 cells at 8 nM incubated for 48 hrs by PI staining based flow cytometry (reference value: 62.08 +/- 0.40 %); type: functional
Histone deacetylase 1 [3] = biological target: T1, Histone deacetylase 1 (Homo sapiens, UniProt Q13547); assay: Inhibition of HDAC1 in human K562 cells assessed as increase in Acetyl-histone H3 level at 0.01 to 1 uM incubated for 24 hrs by Western blot analysis; type: cell-based; conditions: dose 0.01-1 µM
T1 sequence (Q13547 whole entry): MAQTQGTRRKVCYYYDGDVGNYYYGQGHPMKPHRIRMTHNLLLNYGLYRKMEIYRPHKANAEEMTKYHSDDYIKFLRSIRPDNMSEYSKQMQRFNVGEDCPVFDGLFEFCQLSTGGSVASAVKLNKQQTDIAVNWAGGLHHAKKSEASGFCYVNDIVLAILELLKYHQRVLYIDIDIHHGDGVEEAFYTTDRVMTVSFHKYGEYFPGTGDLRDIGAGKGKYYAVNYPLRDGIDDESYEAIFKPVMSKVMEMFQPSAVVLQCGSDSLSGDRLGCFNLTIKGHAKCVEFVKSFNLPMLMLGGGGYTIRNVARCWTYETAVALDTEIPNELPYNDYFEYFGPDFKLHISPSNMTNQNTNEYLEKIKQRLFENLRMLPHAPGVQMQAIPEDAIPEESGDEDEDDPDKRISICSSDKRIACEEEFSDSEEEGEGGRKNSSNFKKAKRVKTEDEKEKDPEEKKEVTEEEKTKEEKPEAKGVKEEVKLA

[4] = biological target: T2, Protein deacetylase HDAC6 (Homo sapiens) (UniProt Q9UBN7); assay: Inhibition of HDAC6 in human K562 cells assessed as increase in Acetyl-alpha-tubulin level at 0.01 to 1 uM incubated for 24 hrs by Western blot analysis; type: cell-based; conditions: dose 0.01-1 µM
T2 sequence (whole entry): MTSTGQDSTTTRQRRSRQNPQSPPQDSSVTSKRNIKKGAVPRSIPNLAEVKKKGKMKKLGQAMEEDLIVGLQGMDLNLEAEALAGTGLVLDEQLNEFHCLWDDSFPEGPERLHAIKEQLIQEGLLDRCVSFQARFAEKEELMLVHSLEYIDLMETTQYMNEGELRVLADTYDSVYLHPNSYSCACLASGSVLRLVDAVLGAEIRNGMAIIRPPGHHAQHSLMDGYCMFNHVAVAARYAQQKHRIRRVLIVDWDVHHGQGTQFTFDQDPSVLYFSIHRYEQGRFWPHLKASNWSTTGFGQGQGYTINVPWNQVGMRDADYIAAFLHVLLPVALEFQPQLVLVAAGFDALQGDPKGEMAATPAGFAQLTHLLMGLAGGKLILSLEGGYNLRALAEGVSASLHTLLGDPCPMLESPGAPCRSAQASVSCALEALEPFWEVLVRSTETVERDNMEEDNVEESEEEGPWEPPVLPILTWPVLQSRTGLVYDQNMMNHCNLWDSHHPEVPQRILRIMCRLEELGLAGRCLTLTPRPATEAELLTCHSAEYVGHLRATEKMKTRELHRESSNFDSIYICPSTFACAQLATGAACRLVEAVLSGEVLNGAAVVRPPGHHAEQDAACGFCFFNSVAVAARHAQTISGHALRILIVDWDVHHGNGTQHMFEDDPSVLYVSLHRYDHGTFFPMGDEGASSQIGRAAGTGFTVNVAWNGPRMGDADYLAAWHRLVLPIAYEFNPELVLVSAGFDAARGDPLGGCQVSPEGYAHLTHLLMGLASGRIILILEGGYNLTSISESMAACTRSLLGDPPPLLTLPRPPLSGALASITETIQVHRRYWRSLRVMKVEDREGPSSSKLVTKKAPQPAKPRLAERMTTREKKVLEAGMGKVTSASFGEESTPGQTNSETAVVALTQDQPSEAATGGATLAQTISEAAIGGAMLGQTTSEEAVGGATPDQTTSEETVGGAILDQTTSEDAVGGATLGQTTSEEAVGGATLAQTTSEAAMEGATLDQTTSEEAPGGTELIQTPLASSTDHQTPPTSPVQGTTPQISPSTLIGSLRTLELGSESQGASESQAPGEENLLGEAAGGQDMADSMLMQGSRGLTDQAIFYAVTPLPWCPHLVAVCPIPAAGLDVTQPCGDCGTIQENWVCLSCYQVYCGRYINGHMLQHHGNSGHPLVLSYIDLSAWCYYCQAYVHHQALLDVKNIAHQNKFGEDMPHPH

K562 [5] = assay: Induction of cell cycle arrest at S phase in human K562 cells at 2 nM incubated for 48 hrs by PI staining based flow cytometry (reference value: 22.56 +/- 0.47 %); type: functional
K562 [6] = assay: Induction of apoptosis in human K562 cells assessed as chromatin aggregation at 2 to 8 nM incubated for 48 hrs by Hoechst 33342 staining based analysis; type: functional, cell-based; conditions: dose 2-8 nM
K562 [7] = assay: Induction of apoptosis in human K562 cells assessed as late apoptotic cells at 8 nM incubated for 48 hrs by Annexin V/PI staining based flow cytometry (reference value: 3.37 +/- 0.21 %); type: functional
K562 [8] = assay: Antiproliferative activity against human K562 cells incubated for 72 hrs by MTT assay; type: functional, cell-based; conditions: K562, 72 h
HUVEC [9] = assay: Inhibition of tube formation in HUVEC cells incubated for 24 hrs by inverted microscopy; type: functional, cell-based; conditions: Homo sapiens
HUVEC [10] = assay: Antivascular activity against HUVEC cells assessed as decrease in cell migration at 8 nM incubated for 24 hrs by wound healing assay; type: functional, cell-based; conditions: Homo sapiens
K562 [11] = assay: Induction of cell cycle arrest at S phase in human K562 cells at 4 nM incubated for 48 hrs by PI staining based flow cytometry (reference value: 22.56 +/- 0.47 %); type: functional
H22 [12] = assay: Antitumor activity against mouse H22 cells allografted in ICR mouse assessed as decrease in tumor volume at 10 to 20 mg/kg, iv qd for 17 days consecutively; type: functional, organism-based; conditions: dose 10-20 mg/kg, time 17.0 day
MDA-MB-231 = assay: Inhibition of cell […] in human MDA-MB-231 cells incubated for 24 hrs by wound healing assay; type: functional, cell-based; conditions: dose 2-8 nM
H22 [13] = assay: Antitumor activity against mouse H22 cells allografted in ICR mouse assessed as tumor growth inhibition at 10 mg/kg, iv qd for 17 days consecutively relative to control; type: functional; conditions: time 17 day, read-out: TGI
K562 [14] = assay: Induction of apoptosis in human K562 cells assessed as necrotic cells at 8 nM incubated for 48 hrs by Annexin V/PI staining based flow cytometry (reference value: 2.56 +/- 0.22 %); type: functional
K562 [15] = assay: Induction of apoptosis in human K562 cells assessed as early apoptotic cells at 8 nM incubated for 48 hrs by Annexin V/PI staining based flow cytometry (reference value: 1.55 +/- 0.21 %); type: functional
Histone deacetylase 1 [16] = biological target: T1, Histone deacetylase 1; assay: Inhibition of HDAC1 derived from human HeLa cell extract using Ac-Leu-Gly-Lys (Ac)-AMC as substrate by fluorescence based assay; type: cell-free
K562 [17] = assay: Inhibition of mitochondrial membrane potential in human K562 cells assessed as green fluorescence intensity at 8 nM incubated for 48 hrs by JC-1 staining based flow cytometry (reference value: 6.63 +/- 0.27 %); type: functional
K562 [18] = assay: Induction of apoptosis in human K562 cells assessed as viable cells at 8 nM incubated for 48 hrs by Annexin V/PI staining based flow cytometry (reference value: 92.52 +/- 0.34 %); type: functional; conditions: read-out: Activity
K562 [19] = assay: Induction of apoptosis in human K562 cells assessed as early apoptotic cells at 2 nM incubated for 48 hrs by Annexin V/PI staining based flow cytometry (reference value: 1.55 +/- 0.21 %); type: functional
K562 [20] = assay: Induction of apoptosis in human K562 cells assessed as late apoptotic cells at 2 nM incubated for 48 hrs by Annexin V/PI staining based flow cytometry (reference value: 3.37 +/- 0.21 %); type: functional
[21] = Toxicity in ICR mouse allografted with mouse H22 cells assessed as toxic sign in kidney at 10 to 20 mg/kg, iv qd for 17 days consecutively by H and E staining based analysis; type: organism-based; conditions: in vivo, dose 10-20 mg/kg, time 17 day

SMILES: C=C(c1ccc(OC)c(OC(F)C(=O)NO)c1)c1cc(C)nc2ccccc12 (configuration not stated)
- Activity (K562 [1]): Dose-Dependent Effect
- Activity (K562 [2]): 41.72%
- inhibition (Histone deacetylase 1 [3]): Active
- inhibition [4]: Active
- Activity (K562 [5]): 22.65%
- Activity (K562 [6]): Active
- Activity (K562 [7]): 25.59%
- IC50 (K562 [8]): 3 nM
- IC50 (HUVEC [9]): 192 nM
- Activity (HUVEC [10]): Active
- Activity (K562 [11]): 26.6%
- Activity (H22 [12]): Active
- inhibition (MDA-MB-231): Dose-Dependent Effect
- inhibition in vivo at 10 mg/kg (H22 [13]): 48%
- Activity (K562 [14]): 3.7%
- Activity (K562 [15]): 18.11%
- IC50 (Histone deacetylase 1 [16]): 403 nM
- Flu intensity (K562 [17]): 42.31%
- viability at 0.008 µM (K562 [18]): 52.6%
- Activity (K562 [19]): 14.52%
- Activity (K562 [20]): 3.94%
- Activity [21]: Non-Toxic
